Experimental data from patent EP1561465A2, “Methods of use of fluoroquinolone compounds against bacteria” (LG Life Sciences, Ltd., priority 1999, dated 2001).
≈ marks a conversion by molar mass, not a printed value. Where two headings read alike, the source gives them in different places.

Assays:
Type in all cases: cell-based
Shigella spp. = experiment: MIC by agar dilution (NCCLS M7-A4), 288 enteropathogenic isolates, eight quinolones; conditions: Shigella spp. (n = 21)
Streptococcus pneumoniae [1] = experiment: MIC by agar dilution (NCCLS), 411 isolates Buenos Aires 1998-99; conditions: for MIC / MIC90: Streptococcus pneumoniae; for MIC: Ciprofloxacin-resistant S. pneumoniae, read-out: MIC; for MIC90: read-out: MIC90
Salmonella spp. = experiment: MIC by agar dilution (NCCLS M7-A4), 288 enteropathogenic isolates, eight quinolones; conditions: for MIC: ciprofloxacin MIC ≥[…], read-out: MIC
Aeromonas spp. = experiment: MIC by agar dilution (NCCLS M7-A4), 288 enteropathogenic isolates, gemifloxacin and 15 other antimicrobials; conditions: Aeromonas spp. N= 16
Haemophilus influenzae = experiment: MIC by agar dilution (NCCLS), 411 isolates Buenos Aires 1998-99; conditions: Haemophilus influenzae (n = 65)
Proteus mirabilis = experiment: MIC by agar dilution (NCCLS), 322 nosocomial Gram negative isolates, Athens 1998; conditions: Proteus mirabilis; n = 57 isolates
Streptococcus pneumoniae [2] = experiment: MIC by broth microdilution (NCCLS), dried MicroScan panels, clinical isolates 1998-1999; conditions: for MIC90: Streptococcus pneumoniae
[3] = Streptococcus pneumoniae (n = 90)
[4] = Streptococcus pneumoniae (302 isolates)

CC1COc2c(N3CCN(C)CC3)c(F)cc3c(=O)c(C(=O)O)cn1c23 (centres unmarked) [Ofloxacin, ofloxacin]
% Susceptible (Shigella spp.): 100%
MIC50 (Shigella spp.): 0.03 µg/mL (≈ 0.083 µM)
MIC90 (Shigella spp.): 0.06 µg/mL (≈ 0.166 µM)
MIC Range (Shigella spp.): ≤0.015 to 0.06 µg/mL
MIC Range (Streptococcus pneumoniae [1]; [3]): 1 to 16 µg/mL
MIC (Streptococcus pneumoniae [1]; Strain 1): 2 µg/mL (≈ 5.53 µM)
MIC (Streptococcus pneumoniae [1]; Strain 2): 2 µg/mL (≈ 5.53 µM)
MIC (Streptococcus pneumoniae [1]; Strain 3): 16 µg/mL (≈ 44.3 µM)
MIC (Streptococcus pneumoniae [1]; Strain 4): 8 µg/mL (≈ 22.1 µM)
MIC90 (Streptococcus pneumoniae [1]; S. pneumoniae, Penicillin intermediate (n = 17)): 2 µg/mL (≈ 5.53 µM)
MIC90 (Streptococcus pneumoniae [1]; S. pneumoniae, Penicillin resistant (n = 4)): 1 µg/mL (≈ 2.77 µM)
MIC90 (Streptococcus pneumoniae [1]; S. pneumoniae, Penicillin susceptible (n = 69)): 2 µg/mL (≈ 5.53 µM)
MIC90 (Streptococcus pneumoniae [1]; [3]): 2 µg/mL (≈ 5.53 µM)
MIC (Salmonella spp.; S. hadar (n = 2)): 2 µg/mL (≈ 5.53 µM)
MIC (Salmonella spp.; S. newport (n = 1)): 2 µg/mL (≈ 5.53 µM)
% Susceptible (Salmonella spp.; Salmonella spp. (n = 106)): 100%
MIC50 (Salmonella spp.; Salmonella spp. (n = 106)): 0.12 µg/mL (≈ 0.332 µM)
MIC90 (Salmonella spp.; Salmonella spp. (n = 106)): 0.5 µg/mL (≈ 1.38 µM)
MIC Range (Salmonella spp.; Salmonella spp. (n = 106)): 0.06 to 2 µg/mL
MIC (Salmonella spp.; Salmonella, S. tshiongwe (n = 1)): 2 µg/mL (≈ 5.53 µM)
MIC (mg/L) Range (Aeromonas spp.): ≤0.015 to 0.12 mg/L
MIC (Aeromonas spp.; read-out: MIC (mg/L) 50%): ≤ 0.015 mg/L
MIC (Aeromonas spp.; read-out: MIC (mg/L) 90%): 0.03 mg/L (≈ 0.083 µM)
MIC90 (Haemophilus influenzae): 0.06 µg/mL (≈ 0.166 µM)
MIC Range (Haemophilus influenzae): 0.008 to 0.25 µg/mL
MIC50 (Proteus mirabilis): 0.25 µg/mL (≈ 0.692 µM)
MIC90 (Proteus mirabilis): 32 µg/mL (≈ 88.6 µM)
MIC50 (Streptococcus pneumoniae [2]; [4]): 2 µg/mL (≈ 5.53 µM)
MIC Range (Streptococcus pneumoniae [2]; [4]): ≤0.06 to 4 µg/mL
MIC90 (Streptococcus pneumoniae [2]; Erythromycin-resistant (86)): 2 µg/mL (≈ 5.53 µM)
MIC90 (Streptococcus pneumoniae [2]; Erythromycin-sensitive (216)): 4 µg/mL (≈ 11.1 µM)
MIC90 (Streptococcus pneumoniae [2]; Penicillin-intermediate (124)): 4 µg/mL (≈ 11.1 µM)
MIC90 (Streptococcus pneumoniae [2]; Penicillin-resistant (80)): 2 µg/mL (≈ 5.53 µM)
MIC90 (Streptococcus pneumoniae [2]; Penicillin-sensitive (98)): 2 µg/mL (≈ 5.53 µM)
MIC90 (Streptococcus pneumoniae [2]; [4]): 4 µg/mL (≈ 11.1 µM)
